In patent publication US20260000079A1, “COMPOSITIONS AND METHODS FOR MODULATING IMMUNITY IN PLANTS” (BOYCE THOMPSON INSTITUTE FOR PLANT RESEARCH, INC., priority 2019, published 2026):

Assays:
Meloidogyne incognita = experiment: Arabidopsis nematode infection assay (root galls); format: in vivo; conditions: 48 hours root pretreatment
Method: FIG. 4A provides a schematic of the experimental designs for assessing activation of defense pathways and resistance to nematodes and bacteria. […] Bacterial growth was assayed 3 days post inoculation. Data are averages±s.d. (n=17). […] Arabidopsis seedlings were treated with buffer or the indicated concentrations of ascr #18 for 48 hours before inoculation with approximately 300 freshly hatched M. incognita J2 larvae. The numbers of root galls of infected plants were counted 6 weeks post inoculation. Data are averages±s.d. (n≥15). […] Arabidopsis seedlings were treated with the indicated concentrations of ascr #18 for 48 hours before transfer into 12-well plates containing Pluronic® F-127 gel with ˜200 freshly hatched M. incognita J2 larvae. Larvae touching root tips (FIG. 4D) or the whole area of roots (FIG. 4E) were counted at 6 hours post seedling transfer. Data are average±s.d. (n=12). […] Transcript levels were determined by qRT-PCR and plotted as relative fold-change compared to mock treated plants. Data are averages±s.d (n≥6). *P≤0.05; **P≤0.005; ***P≤0.0005; two-tailed t-test.
For Arabidopsis nematode infection assays, Meloidogyne incognita was propagated and hatched as described (Manosalva, et al. (2015) Nat. Commun. 6:7795). Briefly, M. incognita were propagated on tomato (Solanum lycopersicum cv. Tiny Tim). M. incognita eggs were then isolated from egg masses on tomato roots with 0.5% sodium hypochlorite and rinsed with water on a 25-μm sieve. Collected nematode eggs were treated in a solution of 0.02% sodium azide for 20 minutes, and then hatched over water containing 1.5 mg/mL gentamycin sulfate and 0.05 mg/mL nystatin at room temperature on a Baermann pan for three days. Hatched second-stage juveniles (J2) were collected, surface sterilized with an aqueous solution of mercuric chloride (0.004%) and sodium azide (0.004%) for 10 minutes, and rinsed three times with sterile distilled water. […] Galls for M. incognita were counted under a microscope six weeks after inoculation. […]

[1] = tested on: Pseudomonas syringae DC3000; experiment: Bacterial growth assay in ascr #18-pretreated Arabidopsis; format: in vivo, Pseudomonas syringae pv. tomato; conditions: 1 μM, 24 hours pretreatment; acx1acx5 and wildtype Arabidopsis
Method: FIG. 4A provides a schematic of the experimental designs for assessing activation of defense pathways and resistance to nematodes and bacteria. […] Bacterial growth was assayed 3 days post inoculation. Data are averages±s.d. (n=17). […] Arabidopsis seedlings were treated with buffer or the indicated concentrations of ascr #18 for 48 hours before inoculation with approximately 300 freshly hatched M. incognita J2 larvae. The numbers of root galls of infected plants were counted 6 weeks post inoculation. Data are averages±s.d. (n≥15). […] Larvae touching root tips (FIG. 4D) or the whole area of roots (FIG. 4E) were counted at 6 hours post seedling transfer. […] Transcript levels were determined by qRT-PCR and plotted as relative fold-change compared to mock treated plants. […]
Given the rapid conversion of ascr #18 into shorter-chained ascarosides via pβo, the inventors investigated whether metabolism of the pathogen-produced compound ascr #18 produced by plant pathogenic nematodes is required for the activation of plant defense responses and resistance to other non-nematode pathogens. […] To test whether ascaroside metabolism plays a role in ascr #18-mediated enhanced resistance to a bacterial pathogen, the effect of ascr #18 treatment on infection with Pseudomonas syringae DC3000 was evaluated in the acx1acx5 mutant and wildtype Arabidopsis.

[2] = tested on: MAPK, jasmonic acid and salicylic acid signaling pathways; conditions: Manosalva, et al. (2015); cited from earlier work
tomato leaves = experiment: LC-MS analysis of tomato leaves infiltrated with ascr #18; format: in vivo, Solanum lycopersicum; conditions: 4-week old tomato plants infiltrated with 1 μM ascr #18
Source text: FIG. 2A provides LC-MS analysis of tomato roots treated with ascr #18 or ^13C2-labeled ascr #18. Plants treated with ^13C2-labeled ascr #18 show peaks at 333.21932 and 249.12542, representing [M-H]^− of ^13C2-ascr #18 and ^13C2-ascr #9, but not at 331.21261 and 247.11871, which correspond to [M-H]^− of ascr #18 and ascr #9, and vice versa. Structures of ascr #18 and ascr #9 indicating the positions of the ^13C2-label are shown above ion chromatograms. Peaks marked with an asterisk represent unrelated peaks. FIGS. 2B and 2C provide graphs showing the relative abundances of ascr #18 and ascr #9, respectively, as measured by LC-MS. Four-week old Arabidopsis leaves were infiltrated with 1 μM ascr #18, and leaf tissue were harvested for LC-MS analyses over a period of 96 hours post infiltration of ascr #18. Data are averages±SEM (n=3). FIG. 2D provides LC-MS analyses of tomato leaves infiltrated with 1 μM ascr #18. Tissues were collected over a 12 hour period. Abundances of ascr #18 and ascr #9 are shown as the peak area, as measured by LC-MS. […] To test whether microbes are required for the observed metabolic transformations, leaves of 4-week old Arabidopsis plants were directly infiltrated with ascr #18 and leaf tissue was subsequently harvested for analysis by LC-MS as above. […]

[3] = tested on: entomopathogenic nematode species; conditions: Kaplan, et al. (2012); cited from earlier work

SMILES | protection against M. incognita (root galls 6 weeks post inoculation) (Meloidogyne incognita; acx1acx5 mutant) | protection against M. incognita (root galls 6 weeks post inoculation) (Meloidogyne incognita; wildtype, 10 nM) | protection against M. incognita (root galls 6 weeks post inoculation) (Meloidogyne incognita; wildtype, 50 nM) | protection against P. syringae infection (bacterial growth 3 days post inoculation) [1] | activation of defense signaling pathways in monocots and dicots [2] | formation of ascr #9 in leaves (tomato leaves) | dispersal behavior [3]
CC1O[C@@H](O[C@@H](C)CCCCCCCCC(=O)O)C(O)C[C@H]1O (stereo in doubt) [ascr #18, (10R)-(3′R,5′R-dihydroxy-6′S-methyl-(2H)-tetrahydropyran-2-yloxy)-undecanoic acid] | no effect | significant protection | significant protection | comparable levels of protection | activation of conserved defense signaling pathways |  | 
C[C@H](CCC(=O)O)O[C@@H]1O[C@@H](C)[C@H](O)C[C@H]1O [ascr #9] |  |  |  |  |  | observed | mediate dispersal behavior
